Reference: ChEMBL document CHEMBL1145387, “Carbonic anhydrase activators: activation of the human isoforms VII (cytosolic) and XIV (transmembrane) with amino acids and amines” (Bioorg Med Chem Lett, 2007)

How the values were obtained:
[1] = biological target: Carbonic anhydrase 7 (Homo sapiens) (UniProt P43166); assay: Activation of human recombinant CA7 by CO2 hydrase assay
[2] = biological target: Carbonic anhydrase 14 (Homo sapiens) (UniProt Q9ULX7); assay: Activation of human recombinant CA14 by CO2 hydrase assay
[3] = biological target: Carbonic anhydrase 1 (Homo sapiens) (UniProt P00915); assay: Activation of human recombinant CA1 by CO2 hydrase assay
[4] = biological target: Carbonic anhydrase 2 (Homo sapiens) (UniProt P00918); assay: Activation of human recombinant CA2 by CO2 hydrase assay

Sequence of Carbonic anhydrase 14 (Homo sapiens) (Q9ULX7 whole entry): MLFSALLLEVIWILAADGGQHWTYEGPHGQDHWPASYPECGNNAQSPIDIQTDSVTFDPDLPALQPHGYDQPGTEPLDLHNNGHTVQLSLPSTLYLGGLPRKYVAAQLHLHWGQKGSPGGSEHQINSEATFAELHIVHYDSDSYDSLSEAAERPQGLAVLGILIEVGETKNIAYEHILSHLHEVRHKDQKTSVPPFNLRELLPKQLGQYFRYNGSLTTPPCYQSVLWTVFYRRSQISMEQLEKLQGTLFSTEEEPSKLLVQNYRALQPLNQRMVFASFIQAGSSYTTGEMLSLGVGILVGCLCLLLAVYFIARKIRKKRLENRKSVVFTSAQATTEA
Sequence of Carbonic anhydrase 7 (Homo sapiens) (P43166 whole entry): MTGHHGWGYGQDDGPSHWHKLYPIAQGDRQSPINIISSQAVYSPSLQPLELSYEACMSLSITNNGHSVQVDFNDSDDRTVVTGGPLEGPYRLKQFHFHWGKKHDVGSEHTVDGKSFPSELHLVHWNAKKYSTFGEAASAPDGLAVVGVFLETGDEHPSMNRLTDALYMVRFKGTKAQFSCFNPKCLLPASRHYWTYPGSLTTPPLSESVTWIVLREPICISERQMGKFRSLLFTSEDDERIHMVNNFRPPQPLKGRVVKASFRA
Sequence of Carbonic anhydrase 1 (Homo sapiens) (P00915 2-261 limits assumed): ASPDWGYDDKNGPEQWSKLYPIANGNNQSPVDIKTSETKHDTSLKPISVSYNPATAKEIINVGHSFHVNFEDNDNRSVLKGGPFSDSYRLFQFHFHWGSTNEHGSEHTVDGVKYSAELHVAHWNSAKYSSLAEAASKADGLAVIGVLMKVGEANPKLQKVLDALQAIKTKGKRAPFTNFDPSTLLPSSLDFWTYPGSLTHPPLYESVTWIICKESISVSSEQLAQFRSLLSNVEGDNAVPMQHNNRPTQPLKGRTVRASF

Row | SMILES | KA [1] [µM] | KA [2] [µM] | KA [3] [µM] | KA [4] [µM]
1 | N[C@H](Cc1c[nH]c2ccccc12)C(=O)O | 39.6 | 18 | – | –
2 | NCCN1CCNCC1 | 32.5 | 18.3 | – | –
3 | N[C@H](Cc1c[nH]cn1)C(=O)O | 0.71 | 2.37 | – | –
4 | N[C@@H](Cc1ccc(O)c(O)c1)C(=O)O | 58.3 | 12.1 | – | –
5 | N[C@@H](Cc1c[nH]cn1)C(=O)O | 0.92 | 0.9 | – | –
6 | Nc1ccc(C[C@H](N)C(=O)O)cc1 | 39.6 | 18 | 0.24 | 0.15
7 | NCc1ccccn1 | 43.7 | 21.7 | – | –
8 | N[C@H](Cc1ccc(O)c(O)c1)C(=O)O | 58.3 | 36.8 | – | –
9 | NCCc1ccccn1 | 27.8 | 6.9 | – | –
10 | NCCc1c[nH]cn1 | 37.5 | 0.01 | – | –
11 | NCCc1ccc(O)c(O)c1 | 0.89 | 14.6 | – | –
12 | N[C@@H](Cc1c[nH]c2ccccc12)C(=O)O | 57.5 | 16.5 | – | –
13 | NCCN1CCOCC1 | 64.3 | 5.4 | – | –
14 | N[C@@H](Cc1ccc(O)cc1)C(=O)O | 20.3 | 21.8 | 0.02 | 0.011
15 | NCCc1c[nH]c2ccc(O)cc12 | 0.93 | 6.5 | – | –
16 | CNC[C@@H](O)c1ccc(O)c(O)c1 | 60 | 36.1 | 0.09 | 96
